The record followed here is patent US20160297763A1, “Heteroaryl hydroxamic acid derivatives and their use in the treatment, amelioration or prevention of a viral disease” (priority 2011, published 2016).

The test system of the first experiment is influenza A virus A/Aichi/2/68 (H3N2). The experiment in a line: Cytopathic effect (CPE) assay H3N2. The conditions noted are these: Influenza A virus, H3N2, activity conc 1 (μM per method); read-out: CPE H3N2 reduction (%). It is filed as cell-based, influenza A virus (H3N2) on MDCK cells. On the procedure: A possible measure of the […] antiviral activity of the compounds having the formula I or II is the CPE assay disclosed herein. […] In this connection, the reduction in the virus-mediated cytopathic effect (CPE) upon treatment with the compounds was calculated as follows: The cell viability of infected-treated and uninfected-treated cells was determined using an ATP-based cell viability assay (Promega). The response in relative luminescent units (RLU) of infected-untreated samples was subtracted from the response (RLU) of the infected-treated samples and then normalized to the viability of the corresponding uninfected sample resulting in % CPE reduction.
The influenza A virus (IAV) was obtained from American Tissue Culture Collection (A/Aichi/2/68 (H3N2); VR-547). Virus stocks were prepared by propagation of virus on Mardin-Darby canine kidney (MDCK; ATCC CCL-34) cells and infectious titres of virus stocks were determined by the 50% tissue culture infective dose (TCID50) analysis as described in Reed, L. J., and H. Muench. 1938, Am. J. Hyg. 27:493-497.
MDCK cells were seeded in 96-well plates at 2×10^4 cells/well using DMEM/Ham's F-12 (1:1) medium containing 10% foetal bovine serum (FBS), 2 mM L-glutamine and 1 antibiotics (all from PAA). Until infection the cells were incubated for 5 hrs at 37° C., 5.0 CO2 to form a ˜80% confluent monolayer on the bottom of the well. Each test compound was dissolved in DMSO and generally tested at 25 μM and 250 μM. In those cases where the compounds were not soluble at that concentration they were tested at the highest soluble concentration. The compounds were diluted in infection medium (DMEM/Ham's F-12 (1:1) containing 5 μg/ml trypsin, and 1% antibiotics) for a final plate well DMSO concentration of 1%. The virus stock was diluted in infection medium (DMEM/Ham's F-12 (1:1) containing 5 μg/ml Trypsin, 1% DMSO, and 1% antibiotics) to a theoretical multiplicity of infection (MOI) of 0.05.
After removal of the culture medium and one washing step with PBS, virus and compound were added together to the cells. In the wells used for cytotoxicity determination (i.e. in the absence of viral infection), no virus suspension was added. Instead, infection medium was added. Each treatment was conducted in two replicates. After incubation at 37° C., 5% CO2 for 48 hrs, each well was observed microscopically for apparent cytotoxicity, precipitate formation, or other notable abnormalities. Then, cell viability was determined using CellTiter-Glo luminescent cell viability assay (Promega). The supernatant was removed carefully and 65 μl of the reconstituted reagent were added to each well and incubated with gentle shaking for 15 min at room temperature. Then, 60 μl of the solution was transferred to an opaque plate and luminescence (RLU) was measured using Synergy HT plate reader (Biotek).
Relative cell viability values of uninfected-treated versus uninfected-untreated cells were used to evaluate cytotoxicity of the compounds. Substances with a relative viability below 80% at the tested concentration were regarded as cytotoxic and retested at lower concentrations.
Reduction in the virus-mediated cytopathic effect (CPE) upon treatment with the compounds was calculated as follows: The response (RLU) of infected-untreated samples was subtracted from the response (RLU) of the infected-treated samples and then normalized to the viability of the corresponding uninfected sample resulting in % CPE reduction.
Regarding `CCONC(=O)c1cc(NCc2cccc(OCc3ccccc3)c2)ccn1`, the inhibition at 1 µM is 1.2%.

Staying with this experiment, now noted: Influenza A virus, H3N2, activity conc 2 (μM per method); read-out: CPE H3N2 reduction (%).
Consider `O=C(c1cc2ccccc2cn1)N(O)CCCc1ccccc1`, for which the inhibition at 2 µM is 4.4%.
On the same count and under the same terms, the same measure for `COC1=CC=C(c2ccnc(C(=O)N(O)Cc3ccccc3)c2)CC1`: -2.5%; for `CC(C)(C)OC(=O)N1C=C(c2ccnc(C(=O)N(O)Cc3ccccc3)c2)CCC1`: 3.9%; for `CC(C)(C)OC(=O)N1C2C=C(c3ccnc(C(=O)N(O)Cc4ccccc4)c3)CC1CC2` (stereo not shown): -5.3%.

The experiment is the same for the next values; noted with them: Influenza A virus, H3N2, activity conc 5 (μM per method); read-out: CPE H3N2 reduction (%).
For `O=C(NO)c1cc(N2CCCCC2)ccn1`, the inhibition at 5 µM is -4.1%.
Same read-out and setting: the result for `O=C(NO)c1cc(NCc2ccccc2)ccn1` reads -0.5%; that for `CN(Cc1ccccc1)c1ccnc(C(=O)N(O)Cc2ccccc2)c1`, 3.8%.
Same read-out and setting: the same measure for `O=C(NO)c1cc(-c2ccc(Cl)cc2)ccn1`: 26.6%.
The same measure, in the same setting: the result for `CNC(=O)c1cccc(-c2ccnc(C(=O)N(O)Cc3ccccc3)c2)c1` reads -7.5%; that for `CN(c1ccnc(C(=O)NO)c1)S(=O)(=O)Cc1ccccc1`, -1.7%.
`O=C(c1cc(N2CCCCC2)cc[n+]1[O-])N(O)Cc1ccccc1`: the inhibition at 5 µM is -1.83%.

Still in this experiment, the particulars now being: Influenza A virus, H3N2, activity conc 20 (μM per method); read-out: CPE H3N2 reduction (%).
Regarding `CCONC(=O)c1ccc(-c2cccc(CN(C)CCCc3ccccc3)c2)cn1`, the inhibition at 20 µM came out at 1.6%.
Same read-out and setting: the result for `CC(C)(C)OC(=O)N1CCC(c2ccnc(C(=O)N(O)Cc3ccccc3)c2)CC1` reads 31.3%; that for `O=C(NO)c1cc(NS(=O)(=O)Cc2cc(Cl)cc(Cl)c2)ccn1`, 28.9%; that for `O=C(c1cc(N2CCC(F)(F)C2)ccn1)N(O)Cc1ccccc1`, 4.6%.

The experiment is the same for the next values; noted with them: Influenza A virus, H3N2, activity conc 50 (μM per method); read-out: CPE H3N2 reduction (%).
Take `CCONC(=O)c1cc(N)ccn1`: the inhibition at 50 µM is 10.5%.
On the same count and under the same terms, the result for `CCONC(=O)c1ccccn1` reads 12.5%; that for `CON(C)C(=O)c1cccc(C(=O)N(C)OC)n1`, -0.3%.
Still for that read-out and setting: the same measure for `CCONC(=O)c1ccc2ccccc2n1`: -2.2%; for `CN(C)C1CCN(c2ccnc(C(=O)N(O)Cc3ccccc3)c2)CC1`: 12.3%; for `CN1CCN(c2ccnc(C(=O)N(O)Cc3ccccc3)c2)CC1`: 2.4%.
Still for that read-out and setting: the result for `O=C(c1cc(C2=CCNCC2)ccn1)N(O)Cc1ccccc1` reads 0.4%.
Regarding `O=C(c1cc(N2CCC(N3CCCCC3)CC2)ccn1)N(O)Cc1ccccc1`, the inhibition at 50 µM was determined as 18.8%.
On to `NC1CCN(c2ccnc(C(=O)N(O)Cc3ccccc3)c2)CC1`, for which the inhibition at 50 µM turned out to be 3.2%.
Same read-out and setting: the same measure for `CN(C)C(=O)c1cccc(-c2ccnc(C(=O)N(O)Cc3ccccc3)c2)c1`: 5.3%; for `CC(C)(C)OC(=O)N1CCN(c2ccnc(C(=O)N(O)Cc3ccccc3)c2)CC1`: 34%; for `CC1(C)C=C(c2ccnc(C(=O)N(O)Cc3ccccc3)c2)CC(C)(C)N1`: 2.8%.
Same read-out and setting: the result for `O=C(c1cc(C2CCNCC2)ccn1)N(O)Cc1ccccc1` reads -1.4%; that for `O=C(NO)c1cc(NS(=O)(=O)Cc2ccc(F)cc2)ccn1`, -1.4%.
On the same count and under the same terms, the result for `CN(O)C(=O)c1cc(N2CCCCC2)ccn1` reads -0.9%.
Regarding `O=C(c1cc(N2CCNCC2)ccn1)N(O)Cc1ccccc1`, the inhibition at 50 µM was -4.5%.
The same measure, in the same setting: the same measure for `O=C(NO)c1cc(NS(=O)(=O)Cc2cccc(F)c2)ccn1`: -2.4%; for `O=C(c1cc(C2=CCC3(CC2)OCCO3)ccn1)N(O)Cc1ccccc1`: 5.4%; for `O=C(c1cc(N2CCC(F)(F)CC2)ccn1)N(O)Cc1ccccc1`: -3.2%.
Same read-out and setting: the same measure for `O=C(c1cc(NS(=O)(=O)Cc2ccc(F)cc2)ccn1)N(O)Cc1ccccc1`: -1.1%; for `O=C(NO)c1cc(NS(=O)(=O)Cc2ccccc2)ccn1`: 5.1%.
Same read-out and setting: the result for `O=C(c1cc(C2=CCCNC2)ccn1)N(O)Cc1ccccc1` reads 9.5%.
For `CN1CCN(c2ccnc(C(=O)N(C)O)c2)CC1`, the inhibition at 50 µM is 2.6%.
Regarding `CN(O)C(=O)c1cc(N2CCOCC2)ccn1`, the inhibition at 50 µM was determined as 5.7%.
